From PubChem BioAssay AID330 (DTP/NCI, 2004) come the findings set out here.

For this experiment, the system named is P388 leukemia ip, CD2F1 mice, survival T/C. Description: NCI In Vivo Anticancer Drug Screen. Data for tumor model P388 Leukemia (intraperitoneal) in CD2F1 (CDF1) mice. The following applies: endpoint: median survival time, higher = longer survival. An outline of the steps: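 Mice carrying the transplanted tumor received test compound or vehicle. Survival was recorded in each group, and the value is the treated-group measurement divided by that of the vehicle-treated control group.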

Setting [1] is: dose: 60.0 mg/kg/injection, schedule: Q01DX005 (ip), vehicle: saline with Tween-80.
Where [2] appears, read: dose: 120.0 mg/kg/injection, schedule: Q01DX005 (ip), vehicle: saline with Tween-80.
Setting [3] is: dose: 240.0 mg/kg/injection, schedule: Q01DX005 (ip), vehicle: saline with Tween-80.
Setting [4] is: dose: 100.0 mg/kg/injection, schedule: Q01DX009 (ip), vehicle: saline with Tween-80.
Setting [5] is: dose: 25.0 mg/kg/injection, schedule: Q01DX005 (ip), vehicle: saline with Tween-80.
[6] abbreviates: dose: 50.0 mg/kg/injection, schedule: Q01DX005 (ip), vehicle: saline with Tween-80.
Where [7] appears, read: dose: 100.0 mg/kg/injection, schedule: Q01DX005 (ip), vehicle: saline with Tween-80.
Setting [8] is: dose: 200.0 mg/kg/injection, schedule: Q01DX005 (ip), vehicle: saline with Tween-80.
[9] abbreviates: dose: 50.0 mg/kg/injection, schedule: Q01DX005 (ip), vehicle: Klucel (hydroxypropylcellulose) (HPC).
Where [10] appears, read: dose: 100.0 mg/kg/injection, schedule: Q01DX005 (ip), vehicle: Klucel (hydroxypropylcellulose) (HPC).
The mark [11] stands for this setting: dose: 200.0 mg/kg/injection, schedule: Q01DX005 (ip), vehicle: Klucel (hydroxypropylcellulose) (HPC).
Where [12] appears, read: dose: 100.0 mg/kg/injection, schedule: Q04DX003 (ip), vehicle: saline.
The mark [13] stands for this setting: dose: 200.0 mg/kg/injection, schedule: Q04DX003 (ip), vehicle: saline.
[14] abbreviates: dose: 400.0 mg/kg/injection, schedule: Q04DX003 (ip), vehicle: saline.

SMILES strings stand for the structures. Where “and” joins values, the source holds several entries; their conditions need not be identical. Equal entries are not always repeated. Toxic doses and inconclusive results are not listed.

As for `Cc1ccc(S(=O)(=O)NCC(CNS(=O)(=O)c2ccc(C)cc2)C(C)(C)C)cc1`, the T/C runs as follows: (dose: 100.0 mg/kg/injection, schedule: Q01DX001 (ip), vehicle: Klucel (hydroxypropylcellulose) (HPC)) 93 % of control; (dose: 200.0 mg/kg/injection, schedule: Q01DX001 (ip), vehicle: Klucel (hydroxypropylcellulose) (HPC)) 93 % of control.

Take `CC(=O)OC1C(=O)C=C(C)OC1=O` (stereo unspecified): the T/C runs as follows: under setting [1], 102 % of control; under setting [2], 99 % of control; under setting [3], 106 % of control.

`C[C@]12C=CC(=O)C=C1CC[C@@H]1[C@@H]2[C@@H](O)C[C@@]2(C)[C@H]1CC[C@]2(O)C(=O)COC(=O)CCC(=O)O`: the T/C is 109 % of control (dose: 66.0 mg/kg/injection, schedule: Q01DX009 (ip), vehicle: saline with Tween-80); 109 % of control under setting [4]; 109 % of control (dose: 150.0 mg/kg/injection, schedule: Q01DX009 (ip), vehicle: saline with Tween-80).

`CNC(=O)OCc1nc(SC)n(Cc2ccccc2)c1COC(=O)NC`: the T/C (dose: 12.5 mg/kg/injection, schedule: Q01DX005 (ip), vehicle: saline with Tween-80) is 100 % of control; the T/C under setting [5] is 110 % of control; the T/C under setting [6] is 110 % of control and 116 % of control; the T/C under setting [7] was 106 % of control and 116 % of control.

Take `CC(C)(C)C1CCN(Cc2ccccc2)CC1`: the T/C is, setting by setting: under setting [5], 103 % of control; under setting [6], 103 % of control; under setting [7], 100 % of control.

In the case of `Nc1nc(-c2ccccn2)cc2ccccc12`, the T/C is 105 % of control under setting [1] and 100 % of control under setting [2].

As to `CC[C@@]12CN3CCc4c([nH]c5ccccc45)[C@@](C(=O)OC)(c4cc5c(cc4OC)N(C=O)[C@H]4[C@@](O)(C(=O)OC)[C@H](OC(C)=O)[C@]6(CC)C=CCN7CC[C@]54[C@@H]76)C[C@H](C3=O)[C@@H]1O2`, the T/C was 113 % of control and 118 % of control (dose: 4.0 mg/kg/injection, schedule: Q01DX001 (ip), vehicle: water); 115 % of control and 116 % of control (dose: 8.0 mg/kg/injection, schedule: Q01DX001 (ip), vehicle: water); 118 % of control (dose: 32.0 mg/kg/injection, schedule: Q01DX001 (ip), vehicle: water).

On to `CCOc1ccc2c(ccc(/C=C\c3cc(C)c4cccnc4c3O)[n+]2C)c1`, for which the T/C is 121 % of control (dose: 3.13 mg/kg/injection, schedule: Q01DX009 (ip), vehicle: saline with Tween-80) and 121 % of control (dose: 6.25 mg/kg/injection, schedule: Q01DX009 (ip), vehicle: saline with Tween-80).

With `O=C(O)/C=C(\Br)C(=O)O`, the T/C reads like this: (dose: 100.0 mg/kg/injection, schedule: Q04DX002 (ip), vehicle: saline) 95 % of control; (dose: 200.0 mg/kg/injection, schedule: Q04DX002 (ip), vehicle: saline) 90 % of control.

For the compound `CN(C)[C@@H]1C(=O)C(C(=O)NCN2CCCCC2)=C(O)[C@@]2(O)C(=O)C3=C(O)c4c(O)cccc4[C@@](C)(O)[C@H]3C[C@@H]12`, the T/C is 95 % of control under setting [6], 95 % of control under setting [7] and 104 % of control under setting [8].

For the compound `CCc1nc(-c2ccccc2)nc2c1nc(-c1ccc(C)cc1)n2Nc1ccccc1`, the T/C under setting [9] was 88 % of control, the T/C under setting [10] was 90 % of control and the T/C under setting [11] was 89 % of control.

Consider `COC(=O)C1=C(C)NC(C)=C(C(=O)OC)C1c1ccc(NC(C)=O)cc1`, for which the T/C is 113 % of control under setting [1], 111 % of control under setting [2] and 113 % of control under setting [3].

In the case of `CCOC(CN=Cc1cc(C)c2[nH]c3ccccc3c2c1C)OCC`, the T/C is 97 % of control under setting [6], 102 % of control under setting [7] and 102 % of control under setting [8].

For `CCN(CC)c1nc(Cl)nc(Nc2ccc3cc(-c4ccccc4)c(=O)oc3c2)n1`, the T/C under setting [9] is 98 % of control, the T/C under setting [10] was 95 % of control and the T/C under setting [11] is 104 % of control.

Consider `Cc1cnc(SC2C3CC4CC(C3)CC2C4)c(C)c1` (stereo unspecified), for which the T/C is 99 % of control (dose: 50.0 mg/kg/injection, schedule: Q01DX009 (ip), vehicle: Klucel (hydroxypropylcellulose) (HPC)); 94 % of control (dose: 100.0 mg/kg/injection, schedule: Q01DX009 (ip), vehicle: Klucel (hydroxypropylcellulose) (HPC)); 88 % of control (dose: 200.0 mg/kg/injection, schedule: Q01DX009 (ip), vehicle: Klucel (hydroxypropylcellulose) (HPC)).

In the case of `NS(=O)(=O)c1ccc(NC(=O)c2cccnc2Nc2cccc(Cl)c2)cc1`, the T/C by setting is: under setting [1], 103 % of control; under setting [2], 102 % of control; under setting [3], 101 % of control.

Regarding `CC(C)(C)SC(=O)C1(C(O)c2ccccc2)CC1` (stereo unspecified), the T/C is, setting by setting: (dose: 100.0 mg/kg/injection, schedule: Q04DX003 (ip), vehicle: Klucel (hydroxypropylcellulose) (HPC)) 106 % of control; (dose: 200.0 mg/kg/injection, schedule: Q04DX003 (ip), vehicle: Klucel (hydroxypropylcellulose) (HPC)) 115 % of control; (dose: 400.0 mg/kg/injection, schedule: Q04DX003 (ip), vehicle: Klucel (hydroxypropylcellulose) (HPC)) 112 % of control.

`CCC1CC(C)C(=O)NC1=O` (stereo unspecified): the T/C is, setting by setting: (dose: 12.5 mg/kg/injection, schedule: Q04DX003 (ip), vehicle: saline) 100 % of control; (dose: 25.0 mg/kg/injection, schedule: Q04DX003 (ip), vehicle: saline) 100 % of control; (dose: 50.0 mg/kg/injection, schedule: Q04DX003 (ip), vehicle: saline) 109 % of control.

Take `Cn1c2nc(-[n+]3cccc(CO)c3)nc-2c([O-])n(C)c1=O`: the T/C was 103 % of control under setting [12], 99 % of control under setting [13] and 103 % of control under setting [14].

Take `N#Cc1ccc(NN=NCCO)cc1`: the T/C reads like this: (dose: 12.5 mg/kg/injection, schedule: Q01DX009 (ip), vehicle: distilled water + Tween-80) 100 % of control; (dose: 25.0 mg/kg/injection, schedule: Q01DX009 (ip), vehicle: distilled water + Tween-80) 102 % of control; (dose: 50.0 mg/kg/injection, schedule: Q01DX009 (ip), vehicle: distilled water + Tween-80) 100 % of control; (dose: 100.0 mg/kg/injection, schedule: Q01DX009 (ip), vehicle: distilled water + Tween-80) 102 % of control.

For `[CH3][Sn]([CH2]c1ccccc1)([CH2]c1ccccc1)[c]1ccccc1`, the T/C (dose: 100.0 mg/kg/injection, schedule: Q04DX003 (ip), vehicle: saline with Tween-80) is 98 % of control; the T/C (dose: 200.0 mg/kg/injection, schedule: Q04DX003 (ip), vehicle: saline with Tween-80) is 105 % of control; the T/C (dose: 400.0 mg/kg/injection, schedule: Q04DX003 (ip), vehicle: saline with Tween-80) is 100 % of control.

As for `O=S(=O)(OC1=CC2c3ccccc3C1c1ccccc12)C(F)(F)F`, the T/C is 100 % of control (dose: 50.0 mg/kg/injection, schedule: Q01DX005 (ip), vehicle: saline + Tween-80 + alcohol); 100 % of control (dose: 100.0 mg/kg/injection, schedule: Q01DX005 (ip), vehicle: saline + Tween-80 + alcohol); 103 % of control (dose: 200.0 mg/kg/injection, schedule: Q01DX005 (ip), vehicle: saline + Tween-80 + alcohol).

On to `O=C(O)CCc1ccccc1Br`, for which the T/C (dose: 100.0 mg/kg/injection, schedule: Q04DX002 (ip), vehicle: saline with Tween-80) is 101 % of control; the T/C (dose: 200.0 mg/kg/injection, schedule: Q04DX002 (ip), vehicle: saline with Tween-80) is 95 % of control; the T/C (dose: 400.0 mg/kg/injection, schedule: Q04DX002 (ip), vehicle: saline with Tween-80) is 100 % of control.

Regarding `O=c1[nH]c2c(ccc3c[n+]([O-])ccc32)c2c1CCC2`, the T/C runs as follows: (dose: 50.0 mg/kg/injection, schedule: Q01DX009 (ip), vehicle: saline with Tween-80) 88 % of control; under setting [4], 100 % of control; (dose: 200.0 mg/kg/injection, schedule: Q01DX009 (ip), vehicle: saline with Tween-80) 108 % of control.

For `Cc1cccc(Cl)c1NC(=O)C(C)C`, the T/C reads like this: (dose: 100.0 mg/kg/injection, schedule: Q04DX003 (ip), vehicle: other) 104 % of control; (dose: 200.0 mg/kg/injection, schedule: Q04DX003 (ip), vehicle: other) 109 % of control; (dose: 400.0 mg/kg/injection, schedule: Q04DX003 (ip), vehicle: other) 90 % of control.

For `CSN(C)C(=O)Nc1cc(Cl)ccc1Cl`, the T/C by setting is: under setting [12], 107 % of control; under setting [13], 92 % of control; under setting [14], 92 % of control.
